According to patent US20080103205A1, “Pesticidal compositions and methods of use” (priority 2006, published 2008):
Like-named read-outs stand apart in the source and are kept apart here.

Tests used:
[1] = system: Meloidogyne incognita eggs; test: M. incognita egg hatching; format: in vivo
How it was run: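 Eggs collected from tomato roots (115–143 per well) were exposed to 2, 5, 10, 20 or 40 ppm compound from DMSO stocks, with 0.2% DMSO controls and 5 replicates, at room temperature. Hatch was scored at 24, 72, 120 and 168 hr as juveniles/total eggs, also normalized to control.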

Meloidogyne incognita = test: Toxicity test, J2 juveniles of Meloidogyne incognita, 96 well micro plate; format: in vivo; conditions: Meloidogyne incognita
How it was run: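 J2 juveniles came from infested tomato roots and adults from culture plates, 17–30 per well, exposed to 50–400 ppm in 0.2% DMSO/tap water at room temperature. Mortality, including worms motionless for 30 sec, was scored at 24, 48, 72, 120 and 168 hr. Five replicates were Abbott-corrected against solvent control, and LC50 was estimated by probit analysis.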

[2] = 24 h, read-out: Corrected Mortality (%)
[3] = 48 h, read-out: Corrected Mortality (%)
[4] = 72 h, read-out: Corrected Mortality (%)
[5] = 120 h, read-out: Corrected Mortality (%)
[6] = 168 h, read-out: Corrected Mortality (%)

Question: What does the source list for `O=C(O)c1cc([N+](=O)[O-])ccc1NCCCc1ccccc1` [NPPB, 5-Nitro-2-(3-phenylpropylamino)benzoic acid]?
Answer: Eggs Hatched % ([1]; 2 ppm, 24 hr): 10%; Eggs Hatched % C* (% hatch, normalized to control) ([1]; 2 ppm, 24 hr): 100%; Eggs Hatched No. ([1]; 2 ppm, 24 hr): 61; Eggs Hatched % ([1]; 2 ppm, 72 hr): 14%; Eggs Hatched % C* (% hatch, normalized to control) ([1]; 2 ppm, 72 hr): 87%; Eggs Hatched No. ([1]; 2 ppm, 72 hr): 92; Eggs Hatched % ([1]; 2 ppm, 120 hr): 19%; Eggs Hatched % C* (% hatch, normalized to control) ([1]; 2 ppm, 120 hr): 86%; Eggs Hatched No. ([1]; 2 ppm, 120 hr): 127; Eggs Hatched % ([1]; 2 ppm, 168 hr): 23%; Eggs Hatched % C* (% hatch, normalized to control) ([1]; 2 ppm, 168 hr): 83%; Eggs Hatched No. ([1]; 2 ppm, 168 hr): 155; Eggs Hatched % ([1]; 5 ppm, 24 hr): 10%; Eggs Hatched % C* (% hatch, normalized to control) ([1]; 5 ppm, 24 hr): 100%; Eggs Hatched No. ([1]; 5 ppm, 24 hr): 58; Eggs Hatched % ([1]; 5 ppm, 72 hr): 14%; Eggs Hatched % C* (% hatch, normalized to control) ([1]; 5 ppm, 72 hr): 87%; Eggs Hatched No. ([1]; 5 ppm, 72 hr): 86; Eggs Hatched % ([1]; 5 ppm, 120 hr): 18%; Eggs Hatched % C* (% hatch, normalized to control) ([1]; 5 ppm, 120 hr): 82%; Eggs Hatched No. ([1]; 5 ppm, 120 hr): 118; Eggs Hatched % ([1]; 5 ppm, 168 hr): 22%; Eggs Hatched % C* (% hatch, normalized to control) ([1]; 5 ppm, 168 hr): 79%; Eggs Hatched No. ([1]; 5 ppm, 168 hr): 149; Eggs Hatched % ([1]; 10 ppm, 24 hr): 9%; Eggs Hatched % C* (% hatch, normalized to control) ([1]; 10 ppm, 24 hr): 90%; Eggs Hatched No. ([1]; 10 ppm, 24 hr): 58; Eggs Hatched % ([1]; 10 ppm, 72 hr): 12%; Eggs Hatched % C* (% hatch, normalized to control) ([1]; 10 ppm, 72 hr): 75%; Eggs Hatched No. ([1]; 10 ppm, 72 hr): 82; Eggs Hatched % ([1]; 10 ppm, 120 hr): 16%; Eggs Hatched % C* (% hatch, normalized to control) ([1]; 10 ppm, 120 hr): 72%; Eggs Hatched No. ([1]; 10 ppm, 120 hr): 105; Eggs Hatched % ([1]; 10 ppm, 168 hr): 20%; Eggs Hatched % C* (% hatch, normalized to control) ([1]; 10 ppm, 168 hr): 71%; Eggs Hatched No. ([1]; 10 ppm, 168 hr): 129; Eggs Hatched % ([1]; 20 ppm, 24 hr): 9%; Eggs Hatched % C* (% hatch, normalized to control) ([1]; 20 ppm, 24 hr): 90%; Eggs Hatched No. ([1]; 20 ppm, 24 hr): 52; Eggs Hatched % ([1]; 20 ppm, 72 hr): 11%; Eggs Hatched % C* (% hatch, normalized to control) ([1]; 20 ppm, 72 hr): 69%; Eggs Hatched No. ([1]; 20 ppm, 72 hr): 67; Eggs Hatched % ([1]; 20 ppm, 120 hr): 14%; Eggs Hatched % C* (% hatch, normalized to control) ([1]; 20 ppm, 120 hr): 64%; Eggs Hatched No. ([1]; 20 ppm, 120 hr): 85; Eggs Hatched % ([1]; 20 ppm, 168 hr): 17%; Eggs Hatched % C* (% hatch, normalized to control) ([1]; 20 ppm, 168 hr): 61%; Eggs Hatched No. ([1]; 20 ppm, 168 hr): 106; Eggs Hatched % ([1]; 40 ppm, 24 hr): 8%; Eggs Hatched % C* (% hatch, normalized to control) ([1]; 40 ppm, 24 hr): 80%; Eggs Hatched No. ([1]; 40 ppm, 24 hr): 47; Eggs Hatched % ([1]; 40 ppm, 72 hr): 11%; Eggs Hatched % C* (% hatch, normalized to control) ([1]; 40 ppm, 72 hr): 69%; Eggs Hatched No. ([1]; 40 ppm, 72 hr): 61; Eggs Hatched % ([1]; 40 ppm, 120 hr): 11%; Eggs Hatched % C* (% hatch, normalized to control) ([1]; 40 ppm, 120 hr): 50%; Eggs Hatched No. ([1]; 40 ppm, 120 hr): 74; Eggs Hatched % ([1]; 40 ppm, 168 hr): 12%; Eggs Hatched % C* (% hatch, normalized to control) ([1]; 40 ppm, 168 hr): 43%; Eggs Hatched No. ([1]; 40 ppm, 168 hr): 82; mortality at 50 ppm (Meloidogyne incognita; 24 h): 12%; mortality at 100 ppm (Meloidogyne incognita; 24 h): 14%; mortality at 200 ppm (Meloidogyne incognita; 24 h): 18%; mortality at 300 ppm (Meloidogyne incognita; 24 h): 20%; mortality at 400 ppm (Meloidogyne incognita; 24 h): 27%; mortality at 50 ppm (Meloidogyne incognita; [2]): 8%; mortality at 100 ppm (Meloidogyne incognita; [2]): 10%; mortality at 200 ppm (Meloidogyne incognita; [2]): 15%; mortality at 300 ppm (Meloidogyne incognita; [2]): 17%; mortality at 400 ppm (Meloidogyne incognita; [2]): 24%; mortality at 50 ppm (Meloidogyne incognita; 48 h): 22%; mortality at 100 ppm (Meloidogyne incognita; 48 h): 32%; mortality at 200 ppm (Meloidogyne incognita; 48 h): 41%; mortality at 300 ppm (Meloidogyne incognita; 48 h): 43%; mortality at 400 ppm (Meloidogyne incognita; 48 h): 56%; mortality at 50 ppm (Meloidogyne incognita; [3]): 17%; mortality at 100 ppm (Meloidogyne incognita; [3]): 28%; mortality at 200 ppm (Meloidogyne incognita; [3]): 37%; mortality at 300 ppm (Meloidogyne incognita; [3]): 39%; mortality at 400 ppm (Meloidogyne incognita; [3]): 53%; mortality at 50 ppm (Meloidogyne incognita; 72 h): 40%; mortality at 100 ppm (Meloidogyne incognita; 72 h): 51%; mortality at 200 ppm (Meloidogyne incognita; 72 h): 66%; mortality at 300 ppm (Meloidogyne incognita; 72 h): 73%; mortality at 400 ppm (Meloidogyne incognita; 72 h): 82%; mortality at 50 ppm (Meloidogyne incognita; [4]): 33%; mortality at 100 ppm (Meloidogyne incognita; [4]): 45%; mortality at 200 ppm (Meloidogyne incognita; [4]): 62%; mortality at 300 ppm (Meloidogyne incognita; [4]): 70%; mortality at 400 ppm (Meloidogyne incognita; [4]): 80%; mortality at 50 ppm (Meloidogyne incognita; 120 h): 62%; mortality at 100 ppm (Meloidogyne incognita; 120 h): 73%; mortality at 200 ppm (Meloidogyne incognita; 120 h): 90%; mortality at 300 ppm (Meloidogyne incognita; 120 h): 97%; mortality at 400 ppm (Meloidogyne incognita; 120 h): 100%; mortality at 50 ppm (Meloidogyne incognita; [5]): 56%; mortality at 100 ppm (Meloidogyne incognita; [5]): 69%; mortality at 200 ppm (Meloidogyne incognita; [5]): 89%; mortality at 300 ppm (Meloidogyne incognita; [5]): 97%; mortality at 400 ppm (Meloidogyne incognita; [5]): 100%; mortality at 50 ppm (Meloidogyne incognita; 168 h): 89%; mortality at 100 ppm (Meloidogyne incognita; 168 h): 93%; mortality at 200 ppm (Meloidogyne incognita; 168 h): 99%; mortality at 300 ppm (Meloidogyne incognita; 168 h): 100%; mortality at 400 ppm (Meloidogyne incognita; 168 h): 100%; mortality at 50 ppm (Meloidogyne incognita; [6]): 87%; mortality at 100 ppm (Meloidogyne incognita; [6]): 92%; mortality at 200 ppm (Meloidogyne incognita; [6]): 99%; mortality at 300 ppm (Meloidogyne incognita; [6]): 100%; mortality at 400 ppm (Meloidogyne incognita; [6]): 100%
